Measured values from article PMC6934184, “Selective DNA-PKcs inhibition extends the therapeutic index of localized radiotherapy and chemotherapy” (The Journal of Clinical Investigation, 2019).

Biological target: T1, RET Y791F (Homo sapiens, UniProt P07949, Y791F)
T1 construct: purchased Thermo Fisher Scientific (Life Technologies) SelectScreen
Assay: SelectScreen Z'LYTE
Assay type: biochemical
Description: The in vitro kinase selectivity of NU5455 was determined using the SelectScreen Broad Assay Panel (Thermo Fisher Scientific) involving activity and binding assays (Supplemental Table 1). […] Class IA PI3Ks were measured using the p85α subunit.
Kinase [ATP] % Assay Kinase [ATP] % Assay Kinase [ATP] % Assay Kinase [ATP] % Assay […]
RET Y791F Km app 9.2 Z PIK3CG (p110 gamma) Km app 2.9 A KIT D816H n/a -0.2 L TAOK2 (TAO1) Km app -5.1 Z […]
SGK (SGK1) Km app 8.5 Z MAP4K2 (GCK) Km app 2.7 Z TLK2 n/a -0.3 L STK38 (NDR) n/a -5.9 L
MERTK (cMER) Km app 8.3 Z CDK2/cyclin A Km app 2.7 Z TGFBR1 (ALK5) n/a -0.4 L MATK (HYL) Km app -6.3 Z
FYN Km app 8.3 Z EPHA1 Km app 2.7 Z CLK3 Km app -0.5 Z ABL1 E255K Km app -6.6 Z
TEC n/a 8.1 L CDK2/cyclin E1 n/a 2.7 L MAP3K14 (NIK) n/a -0.5 L STK17A (DRAK1) n/a -6.6 L
KIT V654A n/a 8.1 L TESK2 n/a 2.7 L AKT3 (PKB gamma) Km app -0.5 Z JAK2 JH1 JH2 Km app -6.7 Z
ROS1 Km app 8.0 Z SPHK1 Km app 2.7 A MAP3K9 (MLK1) Km app -0.5 Z PRKACB (PRKAC beta) n/a -6.8 L
FGFR3 K650E Km app 7.9 Z AMPK A2/B1/G1 Km app 2.6 Z IKBKB (IKK beta) Km app -0.6 Z PDGFRA (PDGFR alpha) Km app -6.8 Z
RAF1 (cRAF) Y340D Y341D 100 7.9 Z DYRK3 Km app 2.6 Z CAMK2A (CaMKII alpha) Km app -0.6 Z NEK9 Km app -7.2 Z
PI4KA (PI4K alpha) 10 7.8 A CSNK1D (CK1 delta) Km app 2.6 Z PRKCB1 (PKC beta I) Km app -0.7 Z PDK1 Km app -7.3 Z
HIPK2 Km app 7.8 Z ACVR2A n/a 2.5 L TTK n/a -0.7 L RPS6KB1 (p70S6K) Km app -7.8 Z […]

T1 sequence (P07949 29-1114 Y791F): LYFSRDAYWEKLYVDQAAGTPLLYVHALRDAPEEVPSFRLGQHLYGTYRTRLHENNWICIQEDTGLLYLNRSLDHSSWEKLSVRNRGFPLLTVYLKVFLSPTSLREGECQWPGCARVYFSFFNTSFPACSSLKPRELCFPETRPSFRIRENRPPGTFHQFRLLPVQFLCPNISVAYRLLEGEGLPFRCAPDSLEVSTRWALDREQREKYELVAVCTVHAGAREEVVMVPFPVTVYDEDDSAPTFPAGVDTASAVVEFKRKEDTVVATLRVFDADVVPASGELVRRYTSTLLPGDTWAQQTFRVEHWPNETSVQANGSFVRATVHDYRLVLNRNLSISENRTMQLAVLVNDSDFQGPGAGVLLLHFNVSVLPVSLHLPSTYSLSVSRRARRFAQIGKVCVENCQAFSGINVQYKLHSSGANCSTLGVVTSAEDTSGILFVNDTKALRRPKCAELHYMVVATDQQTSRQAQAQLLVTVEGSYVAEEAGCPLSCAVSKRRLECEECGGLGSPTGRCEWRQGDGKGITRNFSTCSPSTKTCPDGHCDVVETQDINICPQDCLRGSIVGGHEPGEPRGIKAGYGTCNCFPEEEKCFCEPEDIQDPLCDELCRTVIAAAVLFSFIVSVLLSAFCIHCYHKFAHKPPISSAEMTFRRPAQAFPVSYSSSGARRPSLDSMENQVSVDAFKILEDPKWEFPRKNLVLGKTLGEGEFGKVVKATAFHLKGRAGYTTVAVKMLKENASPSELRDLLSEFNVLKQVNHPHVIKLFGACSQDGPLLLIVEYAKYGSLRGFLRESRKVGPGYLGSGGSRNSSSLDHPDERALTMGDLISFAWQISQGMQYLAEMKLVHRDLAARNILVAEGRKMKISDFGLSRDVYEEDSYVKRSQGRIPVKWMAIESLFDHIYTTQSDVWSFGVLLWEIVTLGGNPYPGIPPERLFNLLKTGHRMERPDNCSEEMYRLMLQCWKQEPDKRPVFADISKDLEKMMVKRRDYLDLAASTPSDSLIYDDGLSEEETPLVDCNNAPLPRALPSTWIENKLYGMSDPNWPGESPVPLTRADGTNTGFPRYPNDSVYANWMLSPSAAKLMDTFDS

CN(C(=O)CN1CCOCC1)c1ccc2sc3c(-c4cccc5c(=O)cc(N6CC7CCC(C6)O7)oc45)cccc3c2c1 [NU5455]
inhibition at 1 µM: 9.2%
